# Assay results published in paper PMC11784839, “Monoaminergic neurotransmitters are bimodal effectors of tau aggregation” (Science Advances, 2025).
# Target: tau (Homo sapiens, UniProt P10636)
# Assay: MCE Phenols Library screening, tau biosensor cell seeding assay (AvZ)
# Format: cell-based
# Details: for Z repl 1 / Z Repl 2: Z score; for Z repl 1 / raw data 1: replicate 1; for Z Repl 2 / raw data 2: replicate 2; for AvZ (average z score of seeding, SDs from the mean level of seeding): 10 μM phenol in cell cultures, AD brain homogenate preincubated 16 hours, two biological replicates, positive = catalyzes seeding, negative = inhibits
# [1] = average Z score of the two replicates, MCE Phenols Library screen
# [2] = average puncta of the two replicates
# [3] = average Z score of two replicates, Phenols Library screen
# [4] = average Z score of the two replicates, tau seeding
# Sequence of tau (P10636 623-695 limits assumed): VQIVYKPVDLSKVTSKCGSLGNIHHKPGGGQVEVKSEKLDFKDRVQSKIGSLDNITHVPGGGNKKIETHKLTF
Z repl 1,Z Repl 2,av Z [1],av puncta [2],raw data 1 (puncta),raw data 2 (puncta),av puncta (average of raw data 1 and 2),av Z [3],raw data 1 (raw puncta),raw data 2 (raw puncta),"av Z (average Z score of the two replicates, tau biosensor seeding, MCE Phenols Library screen)",av Z [4],Structure (SMILES),"AvZ (average z score of seeding, SDs from the mean level of seeding)"
-0.564,-0.743,-0.654,12203.7,19572.7,4834.73,,,,,,,Oc1ccc2c(c1)OC[C@]1(O)Cc3cc(O)c(O)cc3[C@H]21 [Brazilin],
-1.001,-1.013,-1.007,,14330.3,1949.4,8139.85,,,,,,O=C1CC(C(=O)O)c2c1oc(=O)c1cc(O)c(O)c(O)c21 (stereo not shown) [Brevifolincarboxylic acid],
-0.211,0.15,,,23813.7,14367.8,19090.8,-0.031,,,,,O=C(/C=C/c1ccc(O)c(O)c1)c1ccc(O)cc1O [Butein],
-0.317,-0.61,,14397.2,22545.7,6248.57,,,,,,,O=C(/C=C/c1ccc(O)c(O)c1)O[C@@H](C(=O)O)[C@@H](O)C(=O)O [Caftaric acid],-0.464
0.11,-0.703,-0.297,16462.2,,,,,27671.5,5252.85,,,O=C(/C=C/c1ccc(O)c(O)c1)OC[C@H]1O[C@@H](OCCc2ccc(O)c(O)c2)[C@H](O)[C@@H](O)[C@@H]1O [Calceolarioside B],
0.722,1.127,,,35020,24797.2,29908.6,,,,0.924,,COc1ccc(-c2coc3cc(O[C@@H]4O[C@H](CO)[C@@H](O)[C@H](O)[C@H]4O)ccc3c2=O)cc1O [Calycosin-7-O-?-D-glucoside],
0.387,-0.53,,,30989.7,7102.22,19046,-0.072,,,,,COc1ccc(-c2coc3cc(O)ccc3c2=O)cc1O [Calycosin],
0.436,-0.449,,,31586,7974.93,19780.5,-0.006,,,,,CC(C)c1cc2c(c(O)c1O)[C@@]13CCCC(C)(C)[C@@H]1C[C@@H]2OC3=O [Carnosol],
-0.542,-0.523,-0.532,13513.8,19846.5,7181.16,,,,,,,Oc1cc(O)c2c(c1)O[C@H](c1ccc(O)c(O)c1)[C@@H](O)C2 [Catechin],
-2.151,,-1.662,,523.863,241.827,382.845,,,,,,O=C(O)C[C@@H]1C(=O)O[C@H]2[C@@H]3OC(=O)c4cc(O)c(O)c(O)c4-c4c(cc(O)c(O)c4O)C(=O)OC[C@H]2O[C@@H](OC(=O)c2cc(O)c(O)c(O)c2)[C@@H]3OC(=O)c2cc(O)c(O)c3c2[C@H]1[C@H](O)C(=O)O3 [Chebulagic acid],
-1.01,,-1.092,,14229.4,230.797,7230.09,,,,,,O=C(O)C[C@H](C(=O)O)[C@H]1c2c(cc(O)c(O)c2O)C(=O)O[C@@H]1C(=O)O [Chebulic acid],
0.232,-0.247,,,29136,10127.4,19631.7,-0.007,,,,,O=C(/C=C/c1ccc(O)c(O)c1)O[C@@H]1C[C@](O)(C(=O)O)C[C@@H](O)[C@H]1O [Chlorogenic acid],
0.79,0.073,,,35829.5,13544.8,24687.2,,,,,0.431,O=C(O)[C@H]1O[C@@H](Oc2cc(O)c3c(=O)cc(-c4ccccc4)oc3c2)[C@H](O)[C@@H](O)[C@@H]1O [Chrysin-7-O-glucuronide],
0.623,-0.203,,,33824.2,10596.2,22210.2,,,,,0.21,COc1cc(-c2cc(=O)c3c(O)cc(O)cc3o2)ccc1O [Chrysoeriol],
0.088,-0.899,-0.406,15282.9,,,,,27400,3165.82,,,COc1cc(-c2oc3cc(OC)c(OC)c(O)c3c(=O)c2OC)ccc1O [Chrysosplenetin],
-0.369,-0.502,-0.435,14662.2,,,,,21923.2,7401.19,,,COc1cc(CCO[C@@H]2O[C@H](CO[C@@H]3O[C@H](CO)[C@@H](O)[C@H](O)[C@H]3O)[C@@H](OC(=O)/C=C/c3ccc(O)c(O)c3)[C@H](O[C@@H]3O[C@@H](C)[C@H](O)[C@@H](O)[C@H]3O)[C@H]2O)ccc1O [Cistanoside A],

Structure (SMILES),Z repl 1,Z Repl 2,av Z [1],av puncta [2],raw data 1 (puncta),raw data 2 (puncta),av puncta (average of raw data 1 and 2),av Z [3],raw data 1 (raw puncta),raw data 2 (raw puncta),"av Z (average Z score of the two replicates, tau biosensor seeding, MCE Phenols Library screen)",av Z [4],"AvZ (average z score of seeding, SDs from the mean level of seeding)"
O=C(/C=C/c1ccc(O)c(O)c1)OCCc1ccccc1 [Caffeic acid phenethyl ester],-0.979,-0.394,-0.686,11579.1,14598.6,8559.5,,,,,,,
"COc1cc(CNC(=O)CCCC/C=C/C(C)C)ccc1O [Capsaicin, reference compound]",0.025,-0.661,,16179.6,,,,,26653.4,5705.75,,,-0.318
COc1cc(O)cc(O)c1C(=O)/C=C/c1ccccc1 [Cardamonin],-0.394,0.139,,,21621.9,14251.5,17936.7,-0.127,,,,,
Cc1ccc(C(C)C)cc1O [Carvacrol],0.54,1.419,,,32834.5,27917.7,30376.1,,,,,,0.979
CC[C@H]1CN2CCc3cc(OC)c(OC)cc3[C@@H]2C[C@@H]1C[C@H]1NCCc2cc(O)c(OC)cc21.Cl.Cl [Cephaeline (dihydrochloride)],-0.202,-0.66,-0.431,14823.1,,,,,23925.6,5720.59,,,
O=C(O)C[C@@H]1C(=O)O[C@H]2[C@H](OC(=O)c3cc(O)c(O)c(O)c3)[C@@H](OC(=O)c3cc(O)c(O)c4c3[C@H]1[C@H](O)C(=O)O4)[C@H](OC(=O)c1cc(O)c(O)c(O)c1)O[C@@H]2COC(=O)c1cc(O)c(O)c(O)c1 [Chebulinic acid],-2.186,-1.184,-1.685,,108.91,125.835,117.372,,,,,,
